# Where “and” joins values, the source holds several entries; their conditions need not be identical. Equal values may be shown once. Entries after “also recorded” stand apart in the source; their conditions may differ.
# How the values were obtained:
# [1] = Kinetic solubility study at pH 4.5 (acetic acid/sodium acetate buffer, HPLC area); conditions: for Encl. Citr. average / solubility at pH 4.5 compared with Enclomiphene citrate having non-needle crystals: pH 4.5
# Method: (§1) Solubility was determined by HPLC analysis, by comparison of the area corresponding to Enclomiphene HPLC peak.
# (§2) To carry out the solubility studies, 400 mg of each product (not grinded) was stirred in water (24 ml, 60v) under the same conditions of stirring speed (magnetic stirring at 1000 rpm with a 2 cm “rugby shape” stir bar), flask used (round bottom flask of 50 ml of capacity with a 29/32 neck), etc. Alliquotes of ca 6 ml of suspension were filtered at different times: 15, 45, 90 and 180 min. After filtration, mother liquors were directly analyzed by HPLC (doing 2 replicates for each analysis) and its pH was determined. The filtered solid was analyzed by XRPD. The solubility analysis was repeated for each product and comparison of solubility was determined by the differences of HPLC area.
# Solubility at a slightly acid medium was determined at pH 4.5 buffer used was a mixture acetic acid/sodium acetate prepared according to USP specifications.
# [2] = Particle size distribution by laser diffraction, wet dispersion; type: physicochemical
# From the text: Different techniques can be used in order to determine the population size distribution (Microscopy image analysis, sieving, sedimentation . . . ). However laser diffraction particle size analyzer using light scattering is one of the most widely used. It is worth noting that each technique is liable to generate a different mean diameter as well as measuring different properties of the particle. Therefore it is very important to indicate the used technique when a result of mean size is given.
# Particle size analysis by laser diffraction analyzer can be performed in wet or dry dispersion. However wet dispersion was selected because: • it allows to use only a small amount of sample, • it is recommended for fragile particles such as organic crystals.
# Particle size distribution was analyzed in a Beckman Coulter LS13320 apparatus equipped with an Universal Liquid Module.
# The particles have to be insoluble in the liquid used for the wet dispersion to avoid dissolution during the measurement.
# 40 mg of the sample were stirred in 25 ml of water and 3 drops of Triton X100 (to improve the wettability of the crystals and to avoid agglomeration during the analysis). If necessary, ultrasonic irradiation (bath 30 kHz and 200 W) was used for short time in order to break up any agglomerates or aggregates.
# [3] = Hygroscopicity by DVS (Dynamic Vapour Sorption); type: physicochemical; conditions: 25° C.; for water uptake at 95% RH: 0-95% RH
# Method: This is a gravimetric technique that measures how much water is absorbed or desorbed by a sample at different relative humidity (RH). At each RH, the sample mass must be allowed to reach gravimetric equilibrium (or surpassed time limit) before progressing to the next humidity level. Sorption and desorption isotherms will be performed at 25° C. over a range of 0-95% RH. The type of sorption isotherm is determined by the pore size and surface character of the material.
# [4] = Filterability of suspension in ethanol; type: physicochemical; conditions: 40 mL of suspension in ethanol, on paper over a Buckner
# Method: Enclomiphene having prismatic shaped crystal habit is indeed very well filterable, since, for example, the filtration (on paper over a Buckner) of 40 mL of suspensions containing of said solid in ethanol takes only 10 seconds.
# [5] = Bulk and tapped density (in-house method, filled space of 500 mg in a test tube); type: physicochemical
# Method: Density was determined by an in-house method measuring the filled space by a sample of 500 mg in a test tube before and after hitting the tube (bulk and tapped density, respectively):
# The compressibility index calculated from bulk and tapped densities can be used to estimate the flow characteristics of the powder. Following the rule described in the article Chem Eng 1965; 72:163-168, it can be considered that the flow character should be: • Excellent for Enclomiphene base having prismatic shaped crystal habit, • Passable for Enclomiphene base having non-prismatic shaped crystal habit (of example 19).
# [6] = Flowability through a glass funnel (in-house method); type: physicochemical
# Method: Flowability was determined by an in-house method using a glass funnel (diameter 80 mm-stem diameter 10 mm-stem length 75 mm) with approximately 5 g of product repeating the process three times (in the cases in which flowability was observed). Different parameters were observed: • Flow or not • Need of percussion • Time to pass through the funnel
# [7] = Stability study of crystal habit by microscopy, three stability conditions for 30 days; type: physicochemical; conditions: 30 days at 60% RH, 75% RH-40° C., 95% RH
# From the text: (B), and 95% RH (C), with reflected light (left) and transmitted light (right) (scale 500 μm).
# Microscopy analysis of Enclomiphene base having prismatic shaped crystal habit exposed to three stability conditions for 30 days indicated the same colorless transparent prism as the starting product.
# [8] = Kinetic solubility study in water (HPLC area of Enclomiphene peak)
# Method: as §1
# For each solubility study, the following parameters were monitored: • intensity of Enclomiphene peak for each replicate of the assay • average value • standard deviation.
# as §2
# Below an HPLC method that allow to have a fast determination of Enclomiphene solubility:
# These HPLC conditions were used to perform solubility analysis.
# [9] = water + Triton X100, without sonication, listed as Enclomiphene having prismatic shaped crystal habit
# [10] = water + Triton X100, without sonication, listed as Sample 724
# [11] = water + Triton X100, without sonication, listed as batch 724
# [12] = first run (example 19: with constant percussion)
# [13] = first run, approx. 5 g, glass funnel
# [14] = water + Triton X100, without sonication, listed as Sample 725
# [15] = water + Triton X100, without sonication, listed as batch 725
compound,measurement,setting,value
CCN(CC)CCOc1ccc(/C(=C(/Cl)c2ccccc2)c2ccccc2)cc1 [Enclomiphene acetate],Encl. Citr. average,[1]; 0 min,0 HPLC area
same,Encl. Citr. average,[1]; 15 min,14069 HPLC area
same,Encl. Citr. average,[1]; 45 min,13771 HPLC area
same,Encl. Citr. average,[1]; 90 min,13708 HPLC area
same,Encl. Citr. average,[1]; 180 min,13196 HPLC area
"CCN(CC)CCOc1ccc(/C(=C(/Cl)c2ccccc2)c2ccccc2)cc1 [Enclomiphene base (example 18), Enclomiphene]",PSD D10,[2]; [9],80 μm
same,PSD D90,[2]; [9],770 μm
same,PSD D10,[2]; [10],81.89 μm
same,PSD D90,[2]; [10],770 μm
same,PSD Mean,[2]; [10],374.3 μm
same,PSD Median (D50),[2]; [10],306.4 μm
same,PSD Mode,[2]; [10],356.1 μm
same,PSD Mean,[2]; [11],374.3 μm
same,PSD Median (D50),[2]; [11],306.54 μm
same,hygroscopicity (in words),[3]; whole range 0-95% RH,not hygroscopic
same,filtration time,[4],10 s
same,filled space of 500 mg in test tube,"[5]; filled space of 500 mg in a test tube after hitting the tube, listed as Enclomiphene (example 18)",8 mm
same,filled space of 500 mg in test tube,"[5]; filled space of 500 mg in a test tube after hitting the tube, listed as Enclomiphene base having prismatic crystal habit",8 mm
same,filled space of 500 mg in test tube,"[5]; filled space of 500 mg in a test tube before hitting the tube, listed as Enclomiphene (example 18)",8 mm
same,filled space of 500 mg in test tube,"[5]; filled space of 500 mg in a test tube before hitting the tube, listed as Enclomiphene base having prismatic crystal habit",8 mm
same,Reduced space (bulk vs tapped),[5]; listed as Enclomiphene (example 18),0%
same,Percussion needed?,[6]; first run,Yes
same,time to pass through the funnel,[6]; [12],15 s
same,Flow?,[6]; [13],Yes
same,flow through the funnel,[6]; listed as Enclomiphene having prismatic shaped crystal habit,flowed through the funnel
same,Flow?,[6]; second run,Yes
same,Percussion needed?,[6]; second run,Yes
same,time to pass through the funnel,[6]; second run,12 s
same,Flow?,[6]; third run,Yes
same,Percussion needed?,[6]; third run,yes
same,time to pass through the funnel,[6]; third run,14 s
same,time to pass through the funnel,"[6]; with percussion, listed as Enclomiphene having prismatic shaped crystal habit",10 s
same,stability of crystal habit,[7],remains stable at least one month
"CCN(CC)CCOc1ccc(/C(=C(/Cl)c2ccccc2)c2ccccc2)cc1 [Enclomiphene base (example 19), Enclomiphene]",PSD D10,[2]; 10 sec sonication,0.100 μm
same,PSD D90,[2]; 10 sec sonication,1.942 μm
same,PSD Mean,[2]; 10 sec sonication,0.715 μm
same,PSD Median (D50),[2]; 10 sec sonication,0.284 μm
same,PSD Mode,[2]; 10 sec sonication,1.748 μm
same,PSD D10,[2]; [14],5.819 μm
same,PSD D90,[2]; [14],90.47 μm
same,PSD Mean,[2]; [14],36.79 μm
same,PSD Median (D50),[2]; [14],24.96 μm
same,PSD Mode,[2]; [14],26.14 μm
same,PSD Mean,[2]; [15],36.79 μm
same,PSD Median (D50),[2]; [15],24.96 μm
same,filled space of 500 mg in test tube,"[5]; filled space of 500 mg in a test tube after hitting the tube, listed as Enclomiphene (example 19)",13 mm
same,filled space of 500 mg in test tube,"[5]; filled space of 500 mg in a test tube after hitting the tube, listed as Enclomiphene base having non-prismatic crystal habit",13 mm
same,filled space of 500 mg in test tube,"[5]; filled space of 500 mg in a test tube before hitting the tube, listed as Enclomiphene (example 19)",17 mm
same,filled space of 500 mg in test tube,"[5]; filled space of 500 mg in a test tube before hitting the tube, listed as Enclomiphene having non-prismatic crystal habit",24 mm
same,Reduced space (bulk vs tapped),[5]; listed as Enclomiphene (example 19),24%
same,Percussion needed?,[6]; first run,Yes (if constant)
same,time to pass through the funnel,[6]; [12],130 s
same,Flow?,[6]; [13],No (static
same,flow through the funnel,[6]; listed as Enclomiphene having non-prismatic shaped crystal habit,did not flow
same,time to pass through the funnel,"[6]; with percussion, listed as Enclomiphene having non-prismatic shaped crystal habit",130 s
"CCN(CC)CCOc1ccc(/C(=C(/Cl)c2ccccc2)c2ccccc2)cc1 [Enclomiphene base, Enclomiphene]",solubility in water (in words),[8],highly insoluble
CCN(CC)CCOc1ccc(/C(=C(/Cl)c2ccccc2)c2ccccc2)cc1.O=C(O)CC(O)(CC(=O)O)C(=O)O [Enclomiphene citrate having needle crystals],water uptake at 95% RH,[3]; listed as batch 723,2.33 % weight and 2.3 % weight
same,solubility in water compared with Enclomiphene citrate having non-needle shaped crystal habit,"[8]; water, listed as Enclomiphene citrate having needle shaped crystal habit",almost double; also recorded: almost two times
same,solubility at pH 4.5 compared with Enclomiphene citrate having non-needle crystals,[1],4 to 5 times
same,solubility at pH 4.5 compared with Enclomiphene citrate having non-needle crystals,[1]; listed as Enclomiphene citrate having needle shaped crystal habit,four times higher
same,Average a/a,"[1]; pH = 4.5, 0 min",0 a/a
same,Average a/a,"[1]; pH = 4.5, 15 min",4135 a/a
same,Average a/a,"[1]; pH = 4.5, 45 min",4024 a/a
same,Average a/a,"[1]; pH = 4.5, 90 min",5109 a/a
same,Average a/a,"[1]; pH = 4.5, 180 min",5079 a/a
CCN(CC)CCOc1ccc(/C(=C(/Cl)c2ccccc2)c2ccccc2)cc1.O=C(O)CC(O)(CC(=O)O)C(=O)O [Enclomiphene citrate having non-needle crystals] [trans-Clomiphene monocitrate],moisture sorption between 0% and 65% RH,[3]; 0-65% RH,2 % weight
same,water uptake at 95% RH,[3]; listed as batch 722,6 % weight
same,Average a/a,"[1]; pH = 4.5, 0 min",0 a/a
same,Average a/a,"[1]; pH = 4.5, 15 min",1185 a/a
same,Average a/a,"[1]; pH = 4.5, 45 min",924 a/a
same,Average a/a,"[1]; pH = 4.5, 90 min",1095 a/a
same,Average a/a,"[1]; pH = 4.5, 180 min",1052 a/a

# Source: patent US20170349533A1 (F.I.S.- FABBRICA ITALIANA SINTETICI S.P.A, priority 2014, published 2017)
